Measured values taken from ChEMBL document CHEMBL3137667, “[Drug-induced liver injury; fourteenth updated edition of the bibliographic database of liver injuries and related drugs]” (Gastroenterol Clin Biol, 2004).

Columns and labels:
[1] = human
[2] = human; remark: listed apart in the source
[3] = human; remark: listed apart in the source
[4] = human; remark: listed apart in the source
[5] = human; remark: listed apart in the source
[6] = human, serum, 4383 h
[7] = human, serum
[8] = human; remark: listed apart in the source
[9] = human; remark: listed apart in the source
[10] = Highest frequency of moderate liver toxicity observed during clinical trials, expressed as a percentage. [column '% BIOL' in source]; details: human
[11] = Highest frequency of acute liver toxicity observed during clinical trials, expressed as a percentage. [column '% AIGUE' in source]; details: human
[12] = human, serum; remark: listed apart in the source
[13] = human; remark: listed apart in the source
[14] = Times to onset, minimal and maximal, observed in the indexed observations. [column 'DELAI' in source]; details: human
[15] = human; remark: listed apart in the source
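Throughout, for Hepatotoxicity (association with vascular disease): count of indexed literature references reporting vascular liver injury in humans, e.g. peliosis hepatitis, hepatic veno-occlusive disease or Budd-Chiari syndrome.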
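Throughout, for Hepatotoxicity (benign tumour): value is a count of indexed literature references citing a benign tumour confirmed by histopathology.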
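Throughout, for Hepatotoxicity (choleostasis): human cholestatic liver injury, shown by histopathology or by peak ALT or AST elevation over alkaline phosphatase ratio below 2, value counts indexed literature reports.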
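Throughout, for Hepatotoxicity (chronic liver disease): chronic liver injury confirmed by histopathology or persistently raised serum aminotransferase activity beyond 6 months, value given as the count of indexed literature references.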
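Throughout, for Hepatotoxicity (cirrhosis): value is a count of indexed literature references reporting cirrhosis confirmed by histopathology.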
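Throughout, for Hepatotoxicity (cytolytic): human cytolytic liver injury, shown by histopathology or by a ratio above 5 of peak ALT or AST elevation to alkaline phosphatase elevation, value counts indexed references.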
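Throughout, for Hepatotoxicity (granulomatous hepatitis): value is a count of indexed literature references reporting granulomatous liver disease confirmed by histopathology.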
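Throughout, for Hepatotoxicity (malignant tumour): malignant tumour confirmed by histopathology, value gives the count of indexed literature references reporting it.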
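Throughout, for Hepatotoxicity (severe hepatitis): human clinical data: severe hepatitis, meaning potentially life-threatening liver failure or clinically observed cases, the value counts how many indexed literature references report it.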
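Throughout, for Hepatotoxicity (steatosis): steatosis confirmed by histopathology, value is the count of indexed references.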

SMILES	Hepatotoxicity (malignant tumour) [1]	Hepatotoxicity (choleostasis) [2]	Hepatotoxicity (granulomatous hepatitis) [3]	Hepatotoxicity (benign tumour) [4]	Hepatotoxicity (cirrhosis) [5]	Hepatotoxicity (chronic liver disease) [6]	Hepatotoxicity (moderate) [7]	Hepatotoxicity (association with vascular disease) [8]	Hepatotoxicity (steatosis) [9]	Hepatotoxicity (moderate) [10]	Hepatotoxicity (acute) [11]	Hepatotoxicity (acute) [12]	Hepatotoxicity (severe hepatitis) [13]	Hepatotoxicity (time to onset) [14]	Hepatotoxicity (cytolytic) [15]
CO[C@@H]1[C@@H](O[C@@H]2O[C@H](C)[C@@H](O[C@H]3C[C@@](C)(O)[C@@H](OC(=O)CC(C)C)[C@H](C)O3)[C@H](N(C)C)[C@H]2O)[C@@H](CC=O)C[C@@H](C)[C@@H](O)/C=C/C=C/C[C@@H](C)OC(=O)C[C@H]1OC(C)=O [JOSAMYCIN]	0	5	0	0	0	0	5	0	0	20%	0%	9	0	5 days - 2 weeks	6
CCNC1=Nc2ccc(Cl)cc2C(C)(c2ccccc2)O1 (stereo not given) [ETIFOXINE]	0	0	0	0	0	0	0	0	0	0%	0%	1	0	11 days	1
N=C(N)NC(=O)c1nc(Cl)c(N)nc1N [AMILORIDE]	0	0	0	0	0	0	2	0	0	1.1%	0%	0	0	2 weeks - 6 months	0
CN1C(=O)CC(=O)N(c2ccccc2)c2cc(Cl)ccc21 [CLOBAZAM]	0	0	0	0	0	0	1	0	0	2.1%	0%	0	0	1 week	0
CC(C)COCC(CN(Cc1ccccc1)c1ccccc1)N1CCCC1 (stereo not given) [BEPRIDIL]	0	0	0	0	0	0	3	0	1	2.8%	0%	1	0	4 days - 20 days	1
O=[As](O)(O)c1ccc(NCCNc2ccc([As](=O)(O)O)cc2)cc1 [DIFETARSONE]	0	2	0	0	0	0	1	0	0	6%	0%	2	0	2 days - 3 weeks	2
CC(=O)Nc1nnc(S(N)(=O)=O)s1 [ACETAZOLAMIDE]	0	1	0	0	0	0	0	0	1	0%	0%	1	1	1 month	0
COc1ccc(CN2CCNCC2)c(OC)c1OC [TRIMETAZIDINE]	0	1	0	0	0	0	0	0	0	0%	0%	1	0	2 weeks	0
Nc1c2c(nc3ccccc13)CCCC2O (stereo not given) [VELNACRINE]	0	0	0	0	0	0	8	0	0	35%	7.3%	2	0	4 weeks - 3 months	2
CCS(=O)(=O)CCn1c([N+](=O)[O-])cnc1C [TINIDAZOLE]	0	0	0	0	0	0	1	0	0	0%	0%	1	0	1 week	1
NS(=O)(=O)c1cc(C(=O)O)cc(N2CCCC2)c1Oc1ccccc1 [PIRETANIDE]	0	0	0	0	0	0	0	0	0	0%	0%	1	0	3 weeks	1
CCN1CCC[C@H]1CNC(=O)c1c(O)c(Cl)cc(Cl)c1OC [RACLOPRIDE]	0	0	0	0	0	0	1	0	0	2.2%	0%	0	0	1 week - 2 weeks	0
COc1ccc(CCN(C)CCCC2(c3ccc(OC)c(OC)c3)S(=O)(=O)CCCS2(=O)=O)cc1OC	0	1	0	0	0	0	2	0	0	6.7%	0%	1	0	1 month	0
CCCC(C)(COC(N)=O)COC(N)=O [MEPROBAMATE]	0	1	0	0	0	0	0	0	0	0%	0%	2	0	2 weeks - 6 months	0
COc1ccc2c(c1)c(CC(=O)OCC(=O)O)c(C)n2C(=O)c1ccc(Cl)cc1 [ACEMETACIN]	0	1	0	0	0	0	0	0	0	0%	0%	1	0	12 weeks	0
